Source: patent publication US20150031740A1, “COSMETIC COMPOSITION FOR STIMULATING THE CELLULAR ANTI-AGING FUNCTIONS OF THE SKIN” (SYNTIVIA, priority 2011, published 2015)

Columns and labels:
[1] = test system: CRNN (Cornulin); test: Expression of cell differentiation and adhesion gene CRNN, RT-PCR in NHEK; type: cell-based, human; details: 10^−5 M, 24 hours, quantitative RT-PCR
Experimental: (§1) In these examples, the expression of messenger RNAs was measured via the technique of quantitative RT-PCR (reverse transcription followed by polymerase chain reaction), after in vitro incubation of the various cell types in the absence or presence of the test compounds.
(§2) This study was performed on normal human dermal fibroblasts (NHDF) or on normal human epidermal keratinocytes (NHEK), depending on the genes tested. The molecules were tested at 10^−5 M in aqueous 0.1% dimethyl sulfoxide (DMSO) solution.
(§3) The cells were cultured at a concentration of 10,000 cells per well of 96-well plates, in the presence of standard culture medium as a function of the cell type.
(§4) The compounds were then added at the test concentration, for 24 hours.
(§5) The supernatant was removed and the cells were taken up in a specific buffer for extraction of the messenger RNAs (mRNA). The mRNAs were purified and reverse-transcribed in the presence of a commercial reverse transcriptase.
(§6) The complementary DNAs (cDNA) obtained were used in a real-time quantitative PCR experiment, by means of suitable primers. The degree of expression of the mRNAs was normalized with five reference genes.
(§7) The cells used for this example are normal human keratinocytes (NHEK).
(§8) The contact with the test compounds was carried out for 24 hours. […]

[2] = test system: COL3A1 (Collagen 3); test: Expression of extracellular matrix gene Collagen 3, RT-PCR in NHDF; type: cell-based, human; details: 10^−5 M, 24 hours, quantitative RT-PCR
Experimental: as §1, §2, §3, §4, §5, §6
(§9) The cells used for this example are normal human fibroblasts (NHDF).
as §8

[3] = test system: SPARC (Osteonectin); test: Expression of extracellular matrix gene SPARC, RT-PCR in NHDF; type: cell-based, human; details: 10^−5 M, 24 hours, quantitative RT-PCR
Experimental: as §1, §2, §3, §4, §5, §6, §9, §8

[4] = test system: AQP3 (Aquaporin 3); test: Expression of cell differentiation and adhesion gene AQP3, RT-PCR in NHEK; type: cell-based, human; details: 10^−5 M, 24 hours, quantitative RT-PCR
Experimental: as §1, §2, §3, §4, §5, §6, §7, §8

[5] = test system: sirtuin-5; test: Expression of the gene coding for sirtuin-5, quantitative RT-PCR in NHDF; type: cell-based; details: normal human fibroblasts (NHDF), 10^−5 M in 0.1% DMSO, 24 hours, mRNA by quantitative RT-PCR
Experimental: In these examples, the expression of messenger RNAs was measured via the technique of quantitative RT-PCR (reverse transcription followed by polymerase chain reaction), after in vitro incubation of the various cell types in the absence or presence of the test compounds. This study was performed on normal human dermal fibroblasts (NHDF) or on normal human epidermal keratinocytes (NHEK), depending on the genes tested. The molecules were tested at 10^−5 M in aqueous 0.1% dimethyl sulfoxide (DMSO) solution. The cells were cultured at a concentration of 10,000 cells per well of 96-well plates, in the presence of standard culture medium as a function of the cell type. The compounds were then added at the test concentration, for 24 hours. The supernatant was removed and the cells were taken up in a specific buffer for extraction of the messenger RNAs (mRNA). The mRNAs were purified and reverse-transcribed in the presence of a commercial reverse transcriptase. The complementary DNAs (cDNA) obtained were used in a real-time quantitative PCR experiment, by means of suitable primers. The degree of expression of the mRNAs was normalized with five reference genes. The cells used for this example are normal human fibroblasts (NHDF). The contact with the test compounds was carried out for 24 hours. The results obtained, in terms of expression of sirtuin-5 (coded for by the gene of Genbank accession number: NC—000006.11) relative to the basal level (absence of compound) taken to 100%, are shown in Table 5 below.

[6] = test system: EPPK1 (Epiplakin 1); test: Expression of cell differentiation and adhesion gene EPPK1, RT-PCR in NHEK; type: cell-based, human; details: 10^−5 M, 24 hours, quantitative RT-PCR
Experimental: as §1, §2, §3, §4, §5, §6, §7, §8

[7] = test system: COL1A11 (Collagen 1); test: Expression of extracellular matrix gene Collagen 1, RT-PCR in NHDF; type: cell-based, human; details: 10^−5 M, 24 hours, quantitative RT-PCR
Experimental: as §1, §2, §3, §4, §5, §6, §9, §8

[8] = test system: COL5A1 (Collagen 5); test: Expression of extracellular matrix gene Collagen 5, RT-PCR in NHDF; type: cell-based, human; details: 10^−5 M, 24 hours, quantitative RT-PCR
Experimental: as §1, §2, §3, §4, §5, §6, §9, §8

[9] = test system: LAMA5 (Laminin alpha 5); test: Expression of extracellular matrix gene Laminin alpha 5, RT-PCR in NHDF; type: cell-based, human; details: 10^−5 M, 24 hours, quantitative RT-PCR
Experimental: as §1, §2, §3, §4, §5, §6, §9, §8

[10] = test system: MMP-9 (matrix metalloprotease type 9); test: Gene expression of MMP-9, quantitative RT-PCR in NHEK; type: cell-based; details: normal human keratinocytes (NHEK), 10^−5 M in 0.1% DMSO, 24 hours, mRNA by quantitative RT-PCR
Experimental: as §1, §2, §3, §4, §5, §6
The cells used for this example were normal human keratinocytes (NHEK).
The contact with the test compounds was carried out for 24 hours.

[11] = test system: ELN (Elastin); test: Expression of extracellular matrix gene Elastin, RT-PCR in NHDF; type: cell-based, human; details: 10^−5 M, 24 hours, quantitative RT-PCR
Experimental: as §1, §2, §3, §4, §5, §6, §9, §8

[12] = test system: SPINK5 (Serine peptidase Kazal type 5); test: Expression of cell differentiation and adhesion gene SPINK5, RT-PCR in NHEK; type: cell-based, human; details: 10^−5 M, 24 hours, quantitative RT-PCR
Experimental: as §1, §2, §3, §4, §5, §6, §7, §8

[13] = test system: TGM1 (Transglutaminase 1); test: Expression of cell differentiation and adhesion gene TGM1, RT-PCR in NHEK; type: cell-based, human; details: 10^−5 M, 24 hours, quantitative RT-PCR
Experimental: as §1, §2, §3, §4, §5, §6, §7, §8

[14] = test system: HAS3 (Hyaluronan synthase 3); test: Expression of extracellular matrix gene Hyaluronan synthase 3, RT-PCR in NHDF; type: cell-based, human; details: 10^−5 M, 24 hours, quantitative RT-PCR
Experimental: as §1, §2, §3, §4, §5, §6, §9, §8

[15] = test system: KRT1 (Keratin 1); test: Expression of cell differentiation and adhesion gene KRT1, RT-PCR in NHEK; type: cell-based, human; details: 10^−5 M, 24 hours, quantitative RT-PCR
Experimental: as §1, §2, §3, §4, §5, §6, §7, §8

[16] = test system: EVPL (Envoplakin); test: Expression of cell differentiation and adhesion gene EVPL, RT-PCR in NHEK; type: cell-based, human; details: 10^−5 M, 24 hours, quantitative RT-PCR
Experimental: as §1, §2, §3, §4, §5, §6, §7, §8

[17] = test system: Collagen 1; test: Expression of Collagen 1 at the protein level by immunofluorescence in NHDF; type: cell-based, human; details: 10 ppm in 0.1% DMSO, 24 hours, FIG. 1
Experimental: In this example, the expression of Collagen 1 was measured at the protein level via the immunofluorescence technique, after in vitro incubation of the cells in the absence or presence of the test compounds, at a concentration of 10 ppm in aqueous 0.1% DMSO solution.
The compound in accordance with the invention of formula (IIa) and the comparative compounds Comp.1 and Comp.2, of respective formula (IV) and (V), were tested.
TGFβ was used as positive control, at a concentration of 10 ng/ml in an aqueous solution. An untreated control was also realized.
This study was performed on normal human dermal fibroblasts (NHDF).
The cells were cultured at a concentration of 4000 cells per well in 96-well plates, in the presence of standard culture medium.
The compounds were then added at the test concentration, identical for all, for 24 hours.
The supernatant was removed and the cells were prepared for the fluorescent labeling. The cells were fixed in the presence of 3.7% formaldehyde, and then permeabilized in a buffer containing 1% Triton®, and finally the cells were rinsed and incubated in the presence of an anti-Collagen1 monoclonal antibody (Abcam) for one hour 30 minutes. After washing, the cells were incubated in the presence of the secondary antibody (Alexa GAM488, Invitrogen) for 1 hour. […]
The fluorescence was then quantified using an automated microscope (ArrayScan®, Cellomics®). […]

[18] = test system: protein Klotho (KL); test: Expression of the gene coding for the protein Klotho (KL), quantitative RT-PCR in NHDF; type: cell-based; details: normal human fibroblasts (NHDF), 10^−5 M in 0.1% DMSO, 24 hours, mRNA by quantitative RT-PCR
Experimental: as §1, §2, §3, §4, §5, §6, §9, §8

## COc1ccc2[nH]cc(CCNC(=O)/C=C/c3ccc(O)c(O)c3)c2c1 [(IIa), (2E)-3-(3,4-Dihydroxyphenyl)-N-[2-(5-methoxy-1H-indol-3-yl)ethyl]-2-propenamide]
[1]
  Gene expression relative to the basal level taken to 100%: CRNN (Cornulin): 261%
[2]
  Gene expression relative to the basal level taken to 100%: COL3A1 (Collagen 3): 125%
[3]
  Gene expression relative to the basal level taken to 100%: SPARC (Osteonectin): 118%
[4]
  Gene expression relative to the basal level taken to 100%: AQP3 (Aquaporin 3): 228%
[5]
  Expression of sirtuin-5 relative to the basal level taken to 100%: 153%
[6]
  Gene expression relative to the basal level taken to 100%: EPPK1 (Epiplakin 1): 177%
[7]
  Gene expression relative to the basal level taken to 100%: COL1A11 (Collagen 1): 133%
[8]
  Gene expression relative to the basal level taken to 100%: COL5A1 (Collagen 5): 144%
[9]
  Gene expression relative to the basal level taken to 100%: LAMA5 (Laminin alpha 5): 141%
[10]
  Decrease of expression of MMP-9 relative to the basal level taken to 100%: −67%
[11]
  Gene expression relative to the basal level taken to 100%: ELN (Elastin): 136%
[12]
  Gene expression relative to the basal level taken to 100%: SPINK5 (Serine peptidase Kazal type 5): 173%
[13]
  Gene expression relative to the basal level taken to 100%: TGM1 (Transglutaminase 1): 183%
[14]
  Gene expression relative to the basal level taken to 100%: HAS3 (Hyaluronan synthase 3): 144%
[15]
  Gene expression relative to the basal level taken to 100%: KRT1 (Keratin 1): 142%
[16]
  Gene expression relative to the basal level taken to 100%: EVPL (Envoplakin): 166%
[17]
  Expression (production) of Collagen 1 relative to the basal level (control) taken to 100%: substantially stimulates the production of collagen 1 by the cells, as much as the positive control (TGFβ)

## COc1ccc2[nH]cc(CCNC(=O)/C=C/c3ccc(O)cc3)c2c1 [(IIb)]
[5]
  Expression of sirtuin-5 relative to the basal level taken to 100%: 125%
[18]
  Expression of the protein Klotho relative to the basal level taken to 100%: +144%

## COc1ccc2[nH]cc(CCNC(=O)c3ccc(O)cc3O)c2c1 [(IIc)]
[10]
  Decrease of expression of MMP-9 relative to the basal level taken to 100%: −56%

## COc1cc(/C=C/C(=O)NCCc2c[nH]c3ccc(O)cc23)ccc1O [(IId)]
[10]
  Decrease of expression of MMP-9 relative to the basal level taken to 100%: −47%

## O=C(NCCc1c[nH]c2ccc(O)cc12)c1ccc(O)c(O)c1 [(IIe)]
[5]
  Expression of sirtuin-5 relative to the basal level taken to 100%: 146%
[10]
  Decrease of expression of MMP-9 relative to the basal level taken to 100%: −81%

## O=C(/C=C/c1ccc(O)c(O)c1)NCCc1c[nH]c2ccc(O)cc12 [(IIf)]
[5]
  Expression of sirtuin-5 relative to the basal level taken to 100%: 140%
[10]
  Decrease of expression of MMP-9 relative to the basal level taken to 100%: −63%

## O=C(NCCc1c[nH]c2ccccc12)c1ccc(O)cc1 [Comp.2, 4-hydroxy-N-[2-(1H-indol-3-yl)ethyl]benzamide, reference compound]
[17]
  Expression (production) of Collagen 1 relative to the basal level (control) taken to 100%: do not stimulate, or only very sparingly stimulate
